# Laboratory results: PubChem BioAssay AID2060894 (Molecular Pharmacology Branch, DTP, NCI, 2025)
# System: K12877-001-R-J1-PDC complex spheroid viability
# Experiment: Anticancer human tumor K12877-001-R-J1-PDC patient-derived lung adenocarcinoma cell line growth inhibition [RAS]
# Conditions: for IC50: curve of first compound; for viability, T/C: stronger effect = lower value
# Method in brief: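 Multi-cell-type spheroids: tumor cells plus HUVEC endothelial cells and mesenchymal stem cells. RAS-pathway inhibitors were combined with targeted agents, each dosed in half-log steps down from clinical Cmax, or from 10 microM when Cmax was unknown.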
# [1] = second compound 0.000949 µM, first compound 0.00316 µM
# [2] = second compound 0.000949 µM, first compound 0.01 µM
# [3] = second compound 0.000949 µM, first compound 0.0316 µM
# [4] = second compound 0.000949 µM, first compound 0.1 µM
# [5] = second compound 0.000949 µM, first compound 0.316 µM
# [6] = second compound 0.000949 µM, first compound 1 µM
# [7] = second compound 0.003 µM, first compound 0.00316 µM
# [8] = second compound 0.003 µM, first compound 0.01 µM
# [9] = second compound 0.003 µM, first compound 0.0316 µM
# [10] = second compound 0.003 µM, first compound 0.1 µM
# [11] = second compound 0.003 µM, first compound 0.316 µM
# [12] = second compound 0.003 µM, first compound 1 µM
# [13] = second compound 0.00949 µM, first compound 0.00316 µM
# [14] = second compound 0.00949 µM, first compound 0.01 µM
# [15] = second compound 0.00949 µM, first compound 0.0316 µM
# [16] = second compound 0.00949 µM, first compound 0.1 µM
# [17] = second compound 0.00949 µM, first compound 0.316 µM
# [18] = second compound 0.00949 µM, first compound 1 µM
# [19] = second compound 0.03 µM, first compound 0.00316 µM
# [20] = second compound 0.03 µM, first compound 0.01 µM
# [21] = second compound 0.03 µM, first compound 0.0316 µM
# [22] = second compound 0.03 µM, first compound 0.1 µM
# [23] = second compound 0.03 µM, first compound 0.316 µM
# [24] = second compound 0.03 µM, first compound 1 µM
# [25] = second compound 0.0949 µM, first compound 0.00316 µM
# [26] = second compound 0.0949 µM, first compound 0.01 µM
# [27] = second compound 0.0949 µM, first compound 0.0316 µM
# [28] = second compound 0.0949 µM, first compound 0.1 µM
# [29] = second compound 0.0949 µM, first compound 0.316 µM
# [30] = second compound 0.0949 µM, first compound 1 µM
# [31] = second compound 0.3 µM, first compound 0.00316 µM
# [32] = second compound 0.3 µM, first compound 0.01 µM
# [33] = second compound 0.3 µM, first compound 0.0316 µM
# [34] = second compound 0.3 µM, first compound 0.1 µM
# [35] = second compound 0.3 µM, first compound 0.316 µM
# [36] = second compound 0.3 µM, first compound 1 µM
# 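Also: spheroids exposed to agents for one week before readout.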
# 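For viability, T/C in this document: tumour cells co-cultured with HUVEC and mesenchymal stem cells in spheroids.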
smiles,measurement,setting,value
C=CC(=O)Nc1cc(Nc2nccc(-c3cn(C)c4ccccc34)n2)c(OC)cc1N(C)CCN(C)C + CCn1c(-c2cccnc2C(C)OC)c2c3cc(ccc31)N1CCOC(CC(NC(=O)C(C(C)C)N(C)C(=O)C3(F)CCN(C(=O)C#CC(C)(C)N(C)C)CC3)C(=O)N3CCCC(N3)C(=O)OCC(C)(C)C2)C1,IC50,second compound 0.000949 µM,> 1000 nM
same,IC50,second compound 0.003 µM,> 1000 nM
same,IC50,second compound 0.00949 µM,> 1000 nM
same,IC50,second compound 0.03 µM,> 1000 nM
same,IC50,second compound 0.0949 µM,> 1000 nM
same,IC50,second compound 0.3 µM,> 1000 nM
same,"viability, T/C",[1],90.4%
same,"viability, T/C",[2],75.9%
same,"viability, T/C",[3],85.4%
same,"viability, T/C",[4],78.5%
same,"viability, T/C",[5],78%
same,"viability, T/C",[6],69.8%
same,"viability, T/C",[7],78.2%
same,"viability, T/C",[8],75.2%
same,"viability, T/C",[9],69.3%
same,"viability, T/C",[10],70.5%
same,"viability, T/C",[11],74.3%
same,"viability, T/C",[12],70.3%
same,"viability, T/C",[13],82.3%
same,"viability, T/C",[14],65%
same,"viability, T/C",[15],75.1%
same,"viability, T/C",[16],71%
same,"viability, T/C",[17],71.6%
same,"viability, T/C",[18],62.7%
same,"viability, T/C",[19],80.5%
same,"viability, T/C",[20],73.2%
same,"viability, T/C",[21],78.7%
same,"viability, T/C",[22],79%
same,"viability, T/C",[23],64.5%
same,"viability, T/C",[24],65%
same,"viability, T/C",[25],67.2%
same,"viability, T/C",[26],72.7%
same,"viability, T/C",[27],74%
same,"viability, T/C",[28],69.5%
same,"viability, T/C",[29],63.5%
same,"viability, T/C",[30],48.5%
same,"viability, T/C",[31],69.8%
same,"viability, T/C",[32],67%
same,"viability, T/C",[33],71.2%
same,"viability, T/C",[34],70.2%
same,"viability, T/C",[35],58.7%
same,"viability, T/C",[36],52.8%
CC(Nc1ccc2c(c1)OCCn1cc(N3C(=O)OCC3C(F)F)nc1-2)C(N)=O (stereo unspecified) + CCn1c(-c2cccnc2C(C)OC)c2c3cc(ccc31)N1CCOC(CC(NC(=O)C(C(C)C)N(C)C(=O)C3(F)CCN(C(=O)C#CC(C)(C)N(C)C)CC3)C(=O)N3CCCC(N3)C(=O)OCC(C)(C)C2)C1,IC50,second compound 0.000949 µM,931 nM
same,IC50,second compound 0.003 µM,472 nM
same,IC50,second compound 0.00949 µM,312 nM
same,IC50,second compound 0.03 µM,571 nM
same,IC50,second compound 0.0949 µM,172 nM
same,IC50,second compound 0.3 µM,81.7 nM
same,"viability, T/C",[3],73.5%
same,"viability, T/C",[4],69.8%
same,"viability, T/C",[5],55.3%
same,"viability, T/C",[6],51.5%
same,"viability, T/C","second compound 0.000949 µM, first compound 3.16 µM",37.5%
same,"viability, T/C","second compound 0.000949 µM, first compound 10 µM",19.3%
same,"viability, T/C",[9],74.8%
same,"viability, T/C",[10],66.8%
same,"viability, T/C",[11],48%
same,"viability, T/C",[12],40.3%
same,"viability, T/C","second compound 0.003 µM, first compound 3.16 µM",44%
same,"viability, T/C","second compound 0.003 µM, first compound 10 µM",19.2%
same,"viability, T/C",[15],76.6%
same,"viability, T/C",[16],53.7%
same,"viability, T/C",[17],50.7%
same,"viability, T/C",[18],43.6%
same,"viability, T/C","second compound 0.00949 µM, first compound 3.16 µM",34%
same,"viability, T/C","second compound 0.00949 µM, first compound 10 µM",22.3%
same,"viability, T/C",[21],65.8%
same,"viability, T/C",[22],62.9%
same,"viability, T/C",[23],55.2%
same,"viability, T/C",[24],44.8%
same,"viability, T/C","second compound 0.03 µM, first compound 3.16 µM",30.5%
same,"viability, T/C","second compound 0.03 µM, first compound 10 µM",16.1%
same,"viability, T/C",[27],66.8%
same,"viability, T/C",[28],52%
same,"viability, T/C",[29],44.6%
same,"viability, T/C",[30],34.4%
same,"viability, T/C","second compound 0.0949 µM, first compound 3.16 µM",28%
same,"viability, T/C","second compound 0.0949 µM, first compound 10 µM",13.4%
same,"viability, T/C",[33],65.5%
same,"viability, T/C",[34],41.2%
same,"viability, T/C",[35],35.7%
same,"viability, T/C",[36],28.1%
same,"viability, T/C","second compound 0.3 µM, first compound 3.16 µM",21.8%
same,"viability, T/C","second compound 0.3 µM, first compound 10 µM",8.8%
O=C(c1ccc(F)c(F)c1Nc1ccc(I)cc1F)N1CC(O)([C@@H]2CCCCN2)C1 + CCn1c(-c2cccnc2C(C)OC)c2c3cc(ccc31)N1CCOC(CC(NC(=O)C(C(C)C)N(C)C(=O)C3(F)CCN(C(=O)C#CC(C)(C)N(C)C)CC3)C(=O)N3CCCC(N3)C(=O)OCC(C)(C)C2)C1,IC50,second compound 0.000949 µM,300 nM
same,IC50,second compound 0.003 µM,239 nM
same,IC50,second compound 0.00949 µM,144 nM
same,IC50,second compound 0.03 µM,227 nM
same,IC50,second compound 0.0949 µM,129 nM
same,IC50,second compound 0.3 µM,58.7 nM
same,"viability, T/C",[1],81.2%
same,"viability, T/C",[2],77.5%
same,"viability, T/C",[3],80.8%
same,"viability, T/C",[4],66.5%
same,"viability, T/C",[5],49.9%
same,"viability, T/C",[6],35.4%
same,"viability, T/C",[7],72.6%
same,"viability, T/C",[8],69.8%
same,"viability, T/C",[9],67.5%
same,"viability, T/C",[10],66.8%
same,"viability, T/C",[11],44.6%
same,"viability, T/C",[12],28.6%
same,"viability, T/C",[13],71.1%
same,"viability, T/C",[14],62.6%
same,"viability, T/C",[15],70.7%
same,"viability, T/C",[16],55.4%
same,"viability, T/C",[17],37.7%
same,"viability, T/C",[18],32.7%
same,"viability, T/C",[19],66.1%
same,"viability, T/C",[20],72.8%
same,"viability, T/C",[21],73.1%
same,"viability, T/C",[22],59%
same,"viability, T/C",[23],46.3%
same,"viability, T/C",[24],28.9%
same,"viability, T/C",[25],76.7%
same,"viability, T/C",[26],64.5%
same,"viability, T/C",[27],69.5%
same,"viability, T/C",[28],45.9%
same,"viability, T/C",[29],44.3%
same,"viability, T/C",[30],33.9%
same,"viability, T/C",[31],70%
same,"viability, T/C",[32],65.6%
same,"viability, T/C",[33],52.1%
same,"viability, T/C",[34],45.6%
same,"viability, T/C",[35],40.1%
same,"viability, T/C",[36],31%
